Columns and labels:
Type in all cases: in vivo
[1] = system: wheat variety Ritmo; experiment: Plot trial in Germany: green leaf area by visual scoring; settings: sprays at BBCH 39 and 59
Protocol: In Germany a plot trial was set up with the wheat variety Ritmo in order to investigate the effect of bixafen on the physiology, morphology and abiotic stress tolerance of wheat plants under realistic agricultural conditions. The products under test were applied to the plants, in the form of sequential spray sequences (BBCH 39 and 59). The spray volume was 400 l of water per hectare. In each trial component, 5 repetitions were carried out. [table] The duration of green coloration of the leaf area was captured by regular visual scoring of the fraction of green leaf area.

[2] = system: wheat variety Ritmo; experiment: Plot trial: chlorophyll content of leaves (pigment extraction method of Ziegler and Ehle)
[3] = system: wheat variety Ritmo; experiment: Plot trial: yield components; settings: sprays at BBCH 39 and 59
[4] = system: infection-free wheat plants of the cultivar Passat; experiment: Glasshouse trial: green leaf area by visual scoring; settings: glasshouse
Protocol: (§1) In a glasshouse trial under controlled conditions, the effect of bixafen was investigated on the physiology, morphology and abiotic stress tolerance of infection-free wheat plants of the cultivar […] plants were grown in 10-litre containers over a period of 4 months. The substrate used was standard earth type ED 73 (Fröndenberg, Germany)+C-Horizont+Sand (4:2:1). The supply of nutrient to the plants took place by feeding with a 0.2% strength Flory 2 liquid fertilizer solution (from Euflor, Munich) once every two weeks. The plants were supplied with water as required. In each component of the trial, 10 repetitions were carried out. To prevent infestation with powdery mildew, Proquinazid (Talius® was applied once. The incidence of aphids and spider mites was avoided by treatments with Karate®, Bulldock® and Sumicidin®. The products under test were applied to the plants, in the form of sequential spray sequences (BBCH 39 and 59). The spray volume was 300 l of water per hectare. [table] The duration of the green coloration of the leaf area was captured on the basis of regular visual scoring of the fraction of the green leaf area.

[5] = system: infection-free wheat plants of the cultivar Passat; experiment: Glasshouse trial: yield components; settings: glasshouse, sprays at BBCH 39 and 59
[6] = system: infection-free wheat plants of the cultivar Passat; experiment: Glasshouse trial: size of the flag leaf; settings: at BBCH 83-85
Protocol: as §1, with “Morphological parameters measured, additionally, were the length and width, i.e. the size” for “The duration”, “flag leaf. This was greatest with” for “green coloration of”, “succinate dehydrogenase (SDH) inhibitor bixafen, in comparison to” for “leaf area was captured on”, “other comparison fungicides.” for “basis of regular visual scoring of the fraction of the green leaf area.”

[7] = system: infection-free wheat plants of the cultivar Passat; experiment: Glasshouse trial: time of heading (ear emergence); parameters: time of heading of wheat (ears emerged): unit not given here
Protocol: (§2) In a glasshouse trial under controlled conditions, the effect of bixafen was investigated on the physiology, morphology and abiotic stress tolerance of infection-free wheat plants of the cultivar […] plants were grown in 10-litre containers over a period of 4 months. The substrate used was standard earth type ED 73 (Fröndenberg, Germany)+C-Horizont+Sand (4:2:1). The supply of nutrient to the plants took place by feeding with a 0.2% strength Flory 2 liquid fertilizer solution (from Euflor, Munich) once every two weeks. The plants were supplied with water as required. In each component of the trial, 10 repetitions were carried out.

[8] = system: infection-free wheat plants of the cultivar Passat; experiment: Glasshouse trial: temperature of ears and leaves as measure of transpiration activity
Protocol: as §2

[9] = system: infection-free wheat plants of the cultivar Passat; experiment: Glasshouse trial: gas exchange activity of wheat ears; settings: development stage BBCH 75
Protocol: as §2

[10] = 7 days after second fungicide application
[11] = 14 days after second fungicide application
[12] = 21 days after second fungicide application
[13] = 28 days after second fungicide application
[14] = 35 days after second fungicide application
[15] = 42 days after second fungicide application
[16] = 68 days after second fungicide application (so in the source)
[17] = 75 days after second fungicide application (so in the source)
[18] = 82 days after second fungicide application (so in the source)
[19] = 89 days after second fungicide application (so in the source)
[20] = 96 days after second fungicide application (so in the source)
[21] = 103 days after second fungicide application (so in the source)
[22] = 110 days after second fungicide application (so in the source)
[23] = 117 days after second fungicide application (so in the source)

## CO/N=C(/C1=NOCCO1)c1ccccc1Oc1ncnc(Oc2ccccc2Cl)c1F [Fluoxastrobin]
[1]; [10]
  green leaf area of the flag leaf: 98.7 % leaf area
  green leaf area of the second-from-top leaf (F-1): 98.8 % leaf area
  green leaf area of the third-from-top leaf (F-2): 96.3 % leaf area
[1]; [11]
  green leaf area of the flag leaf: 98.7 % leaf area
  green leaf area of the second-from-top leaf (F-1): 98.0 % leaf area
  green leaf area of the third-from-top leaf (F-2): 95.5 % leaf area
[1]; [12]
  green leaf area of the flag leaf: 98.3 % leaf area
  green leaf area of the second-from-top leaf (F-1): 96.1 % leaf area
  green leaf area of the third-from-top leaf (F-2): 92.1 % leaf area
[1]; [13]
  green leaf area of the flag leaf: 95.8 % leaf area
  green leaf area of the second-from-top leaf (F-1): 93.5 % leaf area
  green leaf area of the third-from-top leaf (F-2): 88.5 % leaf area
[1]; [14]
  green leaf area of the flag leaf: 63.0 % leaf area
  green leaf area of the second-from-top leaf (F-1): 47.0 % leaf area
  green leaf area of the third-from-top leaf (F-2): 31.5 % leaf area
[1]; [15]
  green leaf area of the flag leaf: 23.7 % leaf area
  green leaf area of the second-from-top leaf (F-1): 9.8 % leaf area
  green leaf area of the third-from-top leaf (F-2): 1.9 % leaf area
[1]; 49 days after second fungicide application
  green leaf area of the second-from-top leaf (F-1): 0 % leaf area
[2]; BBCH 75 (mature milk), leaf F
  Chlorophyll content: 1924 µg/g
[2]; BBCH 75 (mature milk), leaf F-1
  Chlorophyll content: 1671 µg/g
[2]; BBCH 75 (mature milk), leaf F-2
  Chlorophyll content: 1126 µg/g
[2]; BBCH 85 (mature dough), leaf F
  Chlorophyll content: 630 µg/g
[2]; BBCH 85 (mature dough), leaf F-1
  Chlorophyll content: 534 µg/g
[2]; BBCH 85 (mature dough), leaf F-2
  Chlorophyll content: 415 µg/g
[3]
  Ears/m^2: 409
  Harvest Index: 58.1
  Straw: 581 g m^−2
  TKM (thousand-kernel mass): 45.8 g
  Yield: 8.2 t ha^−1
[4]; [16]
  green leaf area of the flag leaf (F): 100 % leaf area
  green leaf area of the second-from-top leaf (F-1): 100 % leaf area
  green leaf area of the third-from-top leaf (F-2): 100 % leaf area
[4]; [17]
  green leaf area of the flag leaf (F): 100 % leaf area
  green leaf area of the second-from-top leaf (F-1): 100 % leaf area
  green leaf area of the third-from-top leaf (F-2): 95 % leaf area
[4]; [18]
  green leaf area of the flag leaf (F): 100 % leaf area
  green leaf area of the second-from-top leaf (F-1): 95 % leaf area
  green leaf area of the third-from-top leaf (F-2): 82 % leaf area
[4]; [19]
  green leaf area of the flag leaf (F): 95 % leaf area
  green leaf area of the second-from-top leaf (F-1): 84 % leaf area
  green leaf area of the third-from-top leaf (F-2): 54 % leaf area
[4]; [20]
  green leaf area of the flag leaf (F): 85 % leaf area
  green leaf area of the second-from-top leaf (F-1): 56 % leaf area
  green leaf area of the third-from-top leaf (F-2): 29 % leaf area
[4]; [21]
  green leaf area of the flag leaf (F): 60 % leaf area
  green leaf area of the second-from-top leaf (F-1): 30 % leaf area
  green leaf area of the third-from-top leaf (F-2): 18 % leaf area
[4]; [22]
  green leaf area of the flag leaf (F): 37 % leaf area
  green leaf area of the second-from-top leaf (F-1): 18 % leaf area
  green leaf area of the third-from-top leaf (F-2): 7 % leaf area
[4]; [23]
  green leaf area of the flag leaf (F): 12 % leaf area
  green leaf area of the second-from-top leaf (F-1): 6 % leaf area
  green leaf area of the third-from-top leaf (F-2): 0 % leaf area
[5]
  Ears/pot: 41.0
  Harvest Index: 29.0%
  Kernels/ear: 21.9
  Straw: 74.5 g/pot
  TKM (thousand-kernel mass): 34.3 g
  Yield: 30.5 g/pot
[6]
  Length of the flag leaf: 25.6 cm
  Width of the flag leaf: 1.4 cm
[6]; calculated using the formula A = 0.67 × length × width
  Area of the flag leaf: 24.01 cm^2
[6]; untreated = 100
  Area [rel.] of the flag leaf: 110 rel.
[7]; 45 days after sowing
  time of heading of wheat (ears emerged): 11.4
[7]; 50 days after sowing
  time of heading of wheat (ears emerged): 33.1
[7]; 55 days after sowing
  time of heading of wheat (ears emerged): 43.8
[7]; 60 days after sowing
  time of heading of wheat (ears emerged): 49.9
[7]; 65 days after sowing
  time of heading of wheat (ears emerged): 61.1
[7]; 70 days after sowing
  time of heading of wheat (ears emerged): 76.4
[7]; 75 days after sowing
  time of heading of wheat (ears emerged): 87.8
[7]; 80 days after sowing
  time of heading of wheat (ears emerged): 93.1
[7]; 85 days after sowing
  time of heading of wheat (ears emerged): 97.1
[8]; BBCH 75, ear
  Temperature (as a measure of the transpiration activity): 23.1 °C
[8]; BBCH 75, leaf
  Temperature (as a measure of the transpiration activity): 22.3 °C
[8]; BBCH 80, ear
  Temperature (as a measure of the transpiration activity): 18.9 °C
[8]; BBCH 80, leaf
  Temperature (as a measure of the transpiration activity): 16.5 °C
[8]; BBCH 85, ear
  Temperature (as a measure of the transpiration activity): 24.8 °C
[8]; BBCH 85, leaf
  Temperature (as a measure of the transpiration activity): 23.4 °C
[8]; BBCH 90, ear
  Temperature (as a measure of the transpiration activity): 23.9 °C
[8]; BBCH 90, lear (so in the source)
  Temperature (as a measure of the transpiration activity): 22.7 °C
[9]
  Photosynthesis (gas exchange activity of wheat ears): −2.44 a CO2 per ear
  Respiration (gas exchange activity of wheat ears): 2.96 b CO2 per ear

— patent US20110196000A1, “Use of succinate dehydrogenase (SDH) inhibitors in the treatment of plant species from the family of the true grasses” (Bayer CropScience AG, priority 2010, published 2011)
